Experimental data taken from patent US20150377889A1, “GALECTIN-3 AS A MARKER FOR PROSTATE CANCER” (Wayne State University, priority 2013, published 2015).

What was measured:
[1] = system: co-cultured BAMEC and LNCaP cells; test: Three-dimensional growth and tube formation assay, BAMEC/LNCaP co-culture on […]; type: cell-based, bovine, human; conditions: for tube formation: loops / tube formation: units of tubes: 10 μg/ml protein added to medium, 36 hr; for tube formation: loops: control 0; for tube formation: units of tubes: control 73; for branching morphogenesis of endothelial cells: 10 μg/ml protein, BAMEC/LNCaP co-culture
Description: Three-dimensional Growth and Tube Formation Assay. To analyze in vitro angiogenesis and interactions between epithelial and endothelial cell formation of tubular networks by co-cultured BAMEC and LNCaP cells, a three-dimensional growth and tube formation assay was performed. Briefly, […]® (10 μl) was added to each chamber of the slide (μ-Slide, ibidi, Martinsried, Germany) and gelled by a 30-min incubation at room temperature, after which 15,000 BAMEC and 5000 LNCaP cells were plated onto the gel in 50 μl of Eagle's minimal essential complete medium. In some chambers, full-length galectin-3 or its fragments were added. After 36 hr, three-dimensional structures were observed under phase contrast microscope and photographed. Images were acquired with an Olympus IX71 microscope supporting a Hamamatsu ORCA-ER video camera. Tube formation image analysis was done using the web-based Image Analysis Win-Tube module of Wimasis online software.
Three-dimensional heterotypic co-cultures of epithelial (LNCaP) and endothelial (BAMEC) cells were performed on […]® to study tube formation in the presence of 10 μg/ml galectin-3 and its fragments. […] FIG. 2B presents a quantitative evaluation of the tube formation assay.

[2] = system: LNCaP cells; test: Chemotaxis assay (Boyden chamber); type: cell-based, human; conditions: 10 μg/ml, 5 hr, compared with control or either of the two fragments
Description: Chemotaxis. This assay was performed using a Boyden chamber (Neuroprobe). In the lower chamber, the chemo-attractant […]® (BD Biosciences) alone or mixed with various concentrations of recombinant galectin-3, galectin-3 1-107, or galectin-3 108-250 was added. LNCaP (5×10^4) cells suspended in basic DMEM were loaded in the upper chamber. The two chambers were separated by a polycarbonate filter of 5-micron pore size and incubated in a 37° C. tissue culture incubator for 5 hr, after which the filter was removed, the cells on top of the filter were wiped off, and the migrated cells were fixed, stained using Protocol Hema 3 stain set (Fisher Scientific), and counted under microscope. Each assay was carried out in triplicate.
The effects of galectin-3 1-107 and 108-250 fragments, as well as full-length galectin-3 on migration of LNCaP cells in a chemotaxis assay were also tested.

[3] = system: LNCaP, Du145, and PC3M cell lines; test: Wound-healing (scratch) assay; type: cell-based, human; conditions: 24 hr, compared with the control
Description: Wound-healing Assay. A wound-healing assay, the scratch assay, was performed according to the protocol published in Liang, et al. (2007), Nat. Protoc. 2, 329-333. Briefly, in this scratch assay 60-mm dishes were coated with ECM and incubated overnight, unbound ECM was removed and the dishes were blocked with bovine serum albumin. Subconfluent growing cells were resuspended in a tissue culture dish by washing cells with PBS, adding versene containing trypsin, and mixing cells with medium containing serum. Cells were then plated onto the prepared 60-mm dish to create a confluent monolayer, and incubated for 6 hr at 37° C.
The cell lines LNCaP (null galectin-3), DU145 (stable clone with reduced galectin-3 expression), and PC3M were used to examine the effect of full-length galectin-3, galectin-3 1-107, and galectin-3 108-250 on prostate cancer cell motility using the scratch assay. The assay was performed with LNCaP, Du145, and PC3M cultured cell lines stimulated by full-length galectin-3, and fragments galectin-3 1-107 and 108-250. A uniform wound was made in each plate using a 1-μl pipette tip. The wound area was observed immediately, then at 24 hr after creation the cells were counted. Cells were grown under identical conditions.

Substance	tube formation: loops [1]	tube formation: units of tubes [1] [units]	branching morphogenesis of endothelial cells [1]	migration of LNCaP cells toward MATRIGEL [2]	prostate cancer cell motility [3]
full-length galectin-3: recombinant full-length human galectin-3 protein (SEQ ID NO:1), overexpressed in Escherichia coli	12	127	induced branching morphogenesis	significantly higher	promotes prostate cancer cell motility
galectin-3 108-250: recombinant fragment 108-250 of human galectin-3 (SEQ ID NO:3), contains carbohydrate recognition domain	0	76	failed to do so		did not show a significant increase in motility
